Test results taken from patent publication US20130231276A1, “Combination Of An Aminoacyl-tRNA Synthetase Inhibitor With A Further Antibacterial Agent For Attenuating Multiple Drug Resistance” (BROWN UNIVERSITY, priority 2010, published 2013).
Values after ≈ are worked out from the molar mass of the structure shown. Where two headings read alike, the source gives them in different places.

Tests used:
[1] = tested on: Streptomyces coelicolor M600; assay: MIC on Difco Nutrient Agar with sub-lethal indolmycin, strain M600 (wild-type); assay type: cell-based; details: for MIC: Streptomyces coelicolor, M600, 48 h, 30° C., 48 hours
Description: (§1) Changes in the susceptibility of S. coelicolor to three clinically used antibacterial drugs (chloramphenicol, erythromycin, and vancomycin) grown in the presence of indolmycin were assessed. The effects of antibiotic combinations were assessed in wild-type S. coelicolor, which has an auxiliary, indolmycin-resistant isoform of tryptophanyl-tRNA synthetase (TrpRS1). We also examined these combinations in three other indolmycin-resistant strains of S. coelicolor—a trpRS2 null strain (B728) (8) and two strains lacking trpRS1 with resistance conferring point mutations in trpRS2 (B734 with TrpRS2 H48N and B735 with TrpRS2 H48Q) (9). These strains were selected because the strong antibacterial activity of indolmycin precluded testing of this hypothesis in the indolmycin-sensitive trpRS1 null strain of S. coelicolor. The effects were measured in terms of changes in the chloramphenicol, erythromycin, and vancomycin MICs of the four strains over a range of sub-lethal indolmycin concentrations.
(§2) Streptomyces coelicolor strains were grown on DIFCO Nutrient Agar supplemented with indolmycin (0-100 μg/mL) and one of the following antibacterial agents: chloramphenicol (10-80 μg /mL), erythromycin (1-110 μg/mL), and vancomycin (30-140 μg/mL). The strains were grown on the media at 30° C. for 48 hours, after which point growth was assessed visually.
(§3) A 50 mg/mL (active enantiomer) stock solution of indolmycin was prepared by dissolving the indolmycin in DMSO. The concentrations of each stock solution reflect the actual concentration of the pharmacologically active substance. Aliquots of the stock solutions were added directly to molten, sterile DIFCO Nutrient Agar prior to solidification. Streptomyces coelicolor spores were directly spread onto the surface of each DNA plate and the plates were incubated at 30° C. for about 48 hours. Growth was assessed visually after the incubation period. Minimal inhibitory concentrations (MICs) reflect the drug concentrations at which no Streptomyces coelicolor growth was observed.
(§4) All Streptomyces strains were grown on Difco Nutrient Agar at 30° C. The MICs were assessed after 48 hours.

[2] = tested on: Streptomyces coelicolor B728; assay: MIC on Difco Nutrient Agar with sub-lethal indolmycin, strain B728 (trpRS2 null); assay type: cell-based
Description: as §1, §2, §3, §4

Helicobacter pylori = details: cited from earlier work
S. coelicolor = assay: Indolmycin MIC against S. coelicolor; assay type: cell-based, Streptomyces coelicolor; details: indolmycin alone
[3] = tested on: methicillin-resistant Staphylococcus aureus; details: cited from earlier work
[4] = molecular target: tryptophanyl-tRNA synthetase (TrpRS1) (Streptomyces coelicolor, UniProt Q8CJX0); details: TrpRS1 of S. coelicolor, reference (19), cited from earlier work
tryptophanyl-tRNA synthetase (TrpRS1), sequence (Q8CJX0 whole entry): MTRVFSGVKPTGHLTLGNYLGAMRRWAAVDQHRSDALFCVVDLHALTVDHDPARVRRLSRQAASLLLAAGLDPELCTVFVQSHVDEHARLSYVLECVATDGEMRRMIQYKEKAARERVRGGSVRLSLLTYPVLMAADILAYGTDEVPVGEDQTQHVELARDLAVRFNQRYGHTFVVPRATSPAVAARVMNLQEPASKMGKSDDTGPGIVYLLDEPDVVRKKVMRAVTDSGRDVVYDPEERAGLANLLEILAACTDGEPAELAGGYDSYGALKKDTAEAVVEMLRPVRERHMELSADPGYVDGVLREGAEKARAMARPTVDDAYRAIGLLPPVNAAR

[5] = strain M600, 0 μg/ml Indolmycin, read-out: MIC
[6] = strain M600, 10 μg/ml Indolmycin, read-out: MIC
[7] = strain M600, 25 μg/ml Indolmycin, read-out: MIC
[8] = strain M600, 50 μg/ml Indolmycin, read-out: MIC
[9] = strain M600, 75 μg/ml Indolmycin, read-out: MIC
[10] = strain M600, 100 μg/ml Indolmycin, read-out: MIC
[11] = Streptomyces coelicolor, B728, 48 h, strain B728, 0 μg/ml Indolmycin, 30° C., 48 hours
[12] = Streptomyces coelicolor, B728, 48 h, strain B728, 10 μg/ml Indolmycin, 30° C., 48 hours
[13] = Streptomyces coelicolor, B728, 48 h, strain B728, 25 μg/ml Indolmycin, 30° C., 48 hours
[14] = Streptomyces coelicolor, B728, 48 h, strain B728, 50 μg/ml Indolmycin, 30° C., 48 hours
[15] = Streptomyces coelicolor, B728, 48 h, strain B728, 75 μg/ml Indolmycin, 30° C., 48 hours
[16] = Streptomyces coelicolor, B728, 48 h, strain B728, 100 μg/ml Indolmycin, 30° C., 48 hours

| Compound | MIC [1, 5] | MIC [1, 6] | MIC [1, 7] | MIC [1, 8] | MIC [1, 9] | MIC [1, 10] | MIC [2, 11] | MIC [2, 12] | MIC [2, 13] | MIC [2, 14] | MIC [2, 15] | MIC [2, 16] | further results |
| --- | --- | --- | --- | --- | --- | --- | --- | --- | --- | --- | --- | --- | --- |
| O=C(N[C@H](CO)[C@H](O)c1ccc([N+](=O)[O-])cc1)C(Cl)Cl [Chloramphenicol, chloramphenicol] | 80 µg/mL | 35 µg/mL | 25 µg/mL | 20 µg/mL | 15 µg/mL | 10 µg/mL | 60 µg/mL | 40 µg/mL | 30 µg/mL | 30 µg/mL | 20 µg/mL | 20 µg/mL | MIC was reduced ([1]; wild-type S. coelicolor, media supplemented with indolmycin): 10 fold |
| CC[C@H]1OC(=O)[C@H](C)[C@@H](O[C@H]2C[C@@](C)(OC)[C@@H](O)[C@H](C)O2)[C@H](C)[C@@H](O[C@@H]2O[C@H](C)C[C@H](N(C)C)[C@H]2O)[C@](C)(O)C[C@@H](C)C(=O)[C@H](C)[C@@H](O)[C@]1(C)O [Erythromycin, erythromycin] | 110 µg/mL | 40 µg/mL | 30 µg/mL | 15 µg/mL | 10 µg/mL | 5 µg/mL | 70 µg/mL | 50 µg/mL | 30 µg/mL | 20 µg/mL | 10 µg/mL | 5 µg/mL |  |
| CN[C@H](CC(C)C)C(=O)N[C@H]1C(=O)N[C@@H](CC(N)=O)C(=O)N[C@H]2C(=O)N[C@H]3C(=O)N[C@H](C(=O)N[C@H](C(=O)O)c4cc(O)cc(O)c4-c4cc3ccc4O)[C@H](O)c3ccc(c(Cl)c3)Oc3cc2cc(c3O[C@@H]2O[C@H](CO)[C@@H](O)[C@H](O)[C@H]2O[C@H]2C[C@](C)(N)[C@H](O)[C@H](C)O2)Oc2ccc(cc2Cl)[C@H]1O [Vancomycin, vancomycin] |  |  |  |  |  |  |  |  |  |  |  |  | MIC ([1]; strain M600, 0 μg/ml Indolmycin): 110 µg/mL; MIC ([1]; strain M600, 10 μg/ml Indolmycin): 110 µg/mL; MIC ([1]; strain M600, 25 μg/ml Indolmycin): 110 µg/mL; MIC ([1]; strain M600, 50 μg/ml Indolmycin): 110 µg/mL; MIC ([1]; strain M600, 75 μg/ml Indolmycin): 110 µg/mL; MIC ([1]; strain M600, 100 μg/ml Indolmycin): 70 µg/mL; more sensitive in the presence of indolmycin ([1]; strain M600, about 100 μg/mL indolmycin): 1.6 times; MIC ([2]; Streptomyces coelicolor, B728, 48 h): 130 µg/mL; MIC ([2]; strain B728, 10 μg/ml Indolmycin, 30° C., 48 hours): 130 µg/mL; MIC ([2]; strain B728, 25 μg/ml Indolmycin, 30° C., 48 hours): 130 µg/mL; MIC ([2]; strain B728, 50 μg/ml Indolmycin, 30° C., 48 hours): 130 µg/mL; MIC ([2]; strain B728, 75 μg/ml Indolmycin, 30° C., 48 hours): 130 µg/mL; MIC ([2]; strain B728, 100 μg/ml Indolmycin, 30° C., 48 hours): 130 µg/mL |
| CN=C1NC(=O)[C@H]([C@H](C)c2c[nH]c3ccccc23)O1 [indolmycin] |  |  |  |  |  |  |  |  |  |  |  |  | MIC (Helicobacter pylori): 0.016 µg/mL (≈ 0.0622 µM); MIC (S. coelicolor): > 500 µg/mL; MIC [3]: 0.5 µg/mL (≈ 1.94 µM); Ki [4]: 900 nM; Ki ([4]; listed as Indolmycin): ~900 nM |
